Earlier results, collected in patent US20220395522A1, “Methods of Use of Glucosamine for Increasing Nitrogen Retention” (TSI Bioproducts (Xuzhou) Co., Ltd., priority 2021, published 2022).

Conditions: cited from earlier work

N[C@H]1C(O)O[C@H](CO)[C@@H](O)[C@@H]1O (some centres unmarked) [glucosamine]
Ingested glucosamine absorbed (human digestive tract): 10-12%
Ingested glucosamine metabolized by members of the intestinal microbiota before it is absorbed (in vivo): more than 50%
